The values that follow come from patent US11021470B2, “2-substituted quinazoline compounds comprising a substituted heterocyclic group and methods of use thereof” (Araxes Pharma LLC, priority 2015, dated 2021).

The target of the first experiment is T1, KRAS G12C 1-169, his-tagged protein, GDP-loaded (Homo sapiens, UniProt P01116, G12C).
T1 construct: KRAS G12C 1-169, his-tagged protein, GDP-loaded
Description: KRAS G12C covalent binding (% modification) by mass spectrometry, ten or three minute incubation. The settings on record: covalent binding to KRAS G12C after a ten minute incubation period. Here is the method:
Test compounds were prepared as 10 mM stock solutions in DMSO (Fisher cat #BP-231-100). KRAS G12C 1-169, his-tagged protein, GDP-loaded was diluted to […] in buffer (20 mM Hepes, 150 mM NaCl, 1 mM MgCl2). Compounds were tested for activity as follows:
Compounds were diluted to 50× final test concentration in DMSO in 96-well storage plates. Compound stock solutions were vortexed before use and observed carefully for any sign of precipitation. Dilutions were as follow: • For 100 μM final compound concentration, compounds were diluted to 5000 μM (5 μl 10 mM compound stock+5 μl DMSO and mixed well by pipetting. • For 30 μM final compound concentration, compounds were diluted to 1500 μM (3 μl 10 mM compound stock+17 μl DMSO) and mixed well by pipetting. • For 10 μM final compound concentration, compounds were diluted to 500 μM (2 μl 10 mM compound stock+38 μl DMSO) and mixed well by pipetting. 49 μl of the stock protein solution was added to each well of a 96-well PCR plate (Fisher cat #1423027). 1 μl of the diluted 50× compounds were added to appropriate wells in the PCR plate using 12-channel pipettor. Reactions were mixed carefully and thoroughly by pipetting up/down with a 200 μl multi-channel pipettor. […] 5 μl of 2% formic acid (Fisher cat #A117) in DI H2O was then added to each well followed by mixing with a pipette. The plate was then resealed with aluminum seal and stored on dry ice until analyzed as described below.
The above described assays were analyzed by mass spectrometry according to one of the following two procedures:
The MS instrument is set to positive polarity, 2 GHz resolution, and low mass (1700) mode and allowed to equilibrate for 30 minutes. The instrument is then calibrated, switched to acquisition mode and the appropriate method loaded.
After another 30 minute equilibration time, a blank batch (i.e., buffer) is run to ensure equipment is operating properly. The samples are thawed at 37° C. for 10 minutes, briefly centrifuged, and transfer to the bench top. Wells A1 and H12 are spiked with 1 μL 500 μM internal standard peptide, and the plates centrifuged at 2000×g for 5 minutes. The method is then run and masses of each individual well recorded.
The masses (for which integration data is desired) for each well are pasted into the platemap and exported from the analysis. Masses for the internal standards are exported as well. The data at 50 ppm is extracted for the +19 charge state, and identity of well A1 is assigned using the internal standard spike and integrated. Peak data is exported as a TOF list and the above steps are repeated individually, for the +20, 21, 22, 23, 24, and 25 charge states.
The masses and peak intensities of KRAS G12C protein species were measured using a Dionex RSLCnano system (Thermo Scientific) connected to a Q Exactive Plus mass spectrometer (Thermo Scientific).
[…] of sample was each loaded onto a Aeris™ 3.6 μm WIDEPORE C4 200 Å, LC Column 50×2.1 mm column maintained at 40° C. at a flow rate of 600 μl min^−1 with […] (0.1% formic acid in acetonitrile). The liquid chromatography conditions were 20% solvent B for 1 min, 20% to 60% solvent B for 1.5 min, 60% to 90% solvent for 0.5 min, 90% solvent B for 0.2 min, 90% to 20% solvent B for 0.2 min, and then equilibrated for 1.6 min before the following sample injection. The flow rate was maintained at 600 μl min^−1 throughout the sample analysis.
The mass spectrometer was operated in profile mode at a resolution of 17500, 5 microscans, using 50 msec max injection time and an AGC target of 1e6, and a full mass range from 800-1850 m/z was recorded. The HCD trapping gas was optimized for maximum sensitivity for intact proteins. The ionization method was electrospray ionization, which used a spray voltage of 4 kV, sheath gas flow set to 50 au, auxiliary gas flow set to 10 au and sweep gas flow set to 1 au. […]
With `C=CC(=O)N1C[C@H](C)N(c2nc(OCCN(CC)CC)nc3c(F)c(-c4c(O)cccc4F)c(Cl)cc23)C[C@H]1C` (atropisomer, axis not shown) [Compound 74, 1-((2R,5S)-4-((R)-6-chloro-2-(2-(diethylamino)ethoxy)-8-fluoro-7-(2-fluoro-6-hydroxyphenyl)quinazolin-4-yl)-2,5-dimethylpiperazin-1-yl)prop-2-en-1-one], the Binding % result is recorded as “++ (++ indicates binding activity from 50 to 90%)”.
Same read-out and setting: the value for `C=CC(=O)N1C[C@@H](C)N(c2nc(N3CC(N(C)C)C3)nc3c(F)c(-c4c(O)cccc4F)c(Cl)cc23)C[C@@H]1C` [Compound 81, 1-((2S,5R)-4-(6-chloro-2-(3-(dimethylamino)azetidin-1-yl)-8-fluoro-7-(2-fluoro-6-hydroxyphenyl)quinazolin-4-yl)-2,5-dimethylpiperazin-1-yl)prop-2-en-1-one] was “+ (+ indicates binding activity greater than 0% and up to 50%)”.
The same measure, in the same setting: then `C=CC(=O)N1C[C@H](C)N(c2nc(OCCN(CC)CC)nc3c(F)c(-c4c(O)cccc4F)c(Cl)cc23)C[C@H]1C` [Compound 48, 1-((2R,5S)-4-(6-chloro-2-(2-(diethylamino)ethoxy)-8-fluoro-7-(2-fluoro-6-hydroxyphenyl)quinazolin-4-yl)-2,5-dimethylpiperazin-1-yl)prop-2-en-1-one], with “++ (++ indicates binding activity from 50 to 90%)”.

Still in this experiment, the particulars now being: covalent binding to KRAS G12C, % modification after a three minute incubation period.
Consider `C=CC(=O)N1C[C@H](C)N(c2nc(N3CC(N(C)C)C3)nc3c(F)c(-c4c(C)ccc5[nH]ccc45)c(Cl)cc23)C[C@H]1C` [Compound 266, 1-((2R,5S)-4-(6-chloro-2-(3-(dimethylamino)azetidin-1-yl)-8-fluoro-7-(5-methyl-1H-indol-4-yl)quinazolin-4-yl)-2,5-dimethylpiperazin-1-yl)prop-2-en-1-one], for which the Binding % entry was “+++ (+++ indicates binding activity greater than 90%)”.
As for `C=CC(=O)N1C[C@H](C)N(c2nc(N3CC(N(C)C)C3)nc3c(F)c(-c4c[nH]c5cccc(C)c45)c(Cl)cc23)C[C@H]1C` [Compound 291, 1-((2R,5S)-4-(6-chloro-2-(3-(dimethylamino)azetidin-1-yl)-8-fluoro-7-(4-methyl-1H-indol-3-yl)quinazolin-4-yl)-2,5-dimethylpiperazin-1-yl)prop-2-en-1-one], the Binding % result is “+ (+ indicates binding activity greater than 0% and up to 50%)”.
For the compound `C=CC(=O)N1C[C@H](C)N(c2nc(OCCn3ccnc3C3CC3)nc3c(F)c(-c4c(O)cccc4F)c(Cl)cc23)C[C@H]1C` (atropisomer, axis not shown) [Compound 275, 1-((2R,5S)-4-(6-chloro-2-(2-(2-cyclopropyl-1H-imidazol-1-yl)ethoxy)-8-fluoro-7-((S)-2-fluoro-6-hydroxyphenyl)quinazolin-4-yl)-2,5-dimethylpiperazin-1-yl)prop-2-en-1-one], the Binding % result is on record as “+++ (+++ indicates binding activity greater than 90%)”.
The same measure, in the same setting: then `C=CC(=O)N1C[C@H](C)N(c2nc(OCCc3cn(C(C)C)cn3)nc3c(F)c(-c4c(O)cccc4F)c(Cl)cc23)C[C@H]1C` [Compound 302, 1-((2R,5S)-4-(6-chloro-8-fluoro-7-(2-fluoro-6-hydroxyphenyl)-2-(2-(1-isopropyl-1H-imidazol-4-yl)ethoxy)quinazolin-4-yl)-2,5-dimethylpiperazin-1-yl)prop-2-en-1-one], with “+++ (+++ indicates binding activity greater than 90%)”; and `C=CC(=O)N1C[C@H](C)N(c2nc(N3CC(N(C)C)C3)nc3c(F)c(-c4c[nH]c5ncccc45)c(Cl)cc23)C[C@H]1C` [Compound 300, 1-((2R,5S)-4-(6-chloro-2-(3-(dimethylamino)azetidin-1-yl)-8-fluoro-7-(1H-pyrrolo[2,3-b]pyridin-3-yl)quinazolin-4-yl)-2.5-dimethylpiperazin-1-yl)prop-2-en-1-one], with “+ (+ indicates binding activity greater than 0% and up to 50%)”; and `C=CC(=O)N1C[C@H](C)N(c2nc(OCCCN3CC(F)(F)C3)nc3c(F)c(-c4c(O)cccc4F)c(Cl)cc23)C[C@H]1C` [Compound 250, 1-((2R,5S)-4-(6-chloro-2-(3-(3,3-difluoroazetidin-1-yl)propoxy)-8-fluoro-7-(2-fluoro-6-hydroxyphenyl)quinazolin-4-yl)-2,5-dimethylpiperazin-1-yl)prop-2-en-1-one], with “+++ (+++ indicates binding activity greater than 90%)”.
The same measure, in the same setting: then `C=CC(=O)N1C[C@H](C)N(c2nc(N3CC(N(C)C)C3)nc3c(F)c(-c4c(F)ccc(Cl)c4O)c(Cl)cc23)C[C@H]1C` [Compound 260, 1-((2R,5S)-4-(6-chloro-7-(3-chloro-6-fluoro-2-hydroxyphenyl)-2-(3-(dimethylamino)azetidin-1-yl)-8-fluoroquinazolin-4-yl)-2,5-dimethylpiperazin-1-yl)prop-2-en-1-one], with “++ (++ indicates binding activity from 50 to 90%)”.
Still for that read-out and setting: the value for `C=CC(=O)N1C[C@H](C)N(c2nc(N3CC(N(C)C)C3)nc3c(Cl)c(-c4c(O)cccc4F)c(Cl)cc23)C[C@H]1C` [Compound 251, 1-((2R,5S)-4-(6,8-dichloro-2-(3-(dimethylamino)azetidin-1-yl)-7-(2-fluoro-6-hydroxyphenyl)quinazolin-4-yl)-2,5-dimethylpiperazin-1-yl)prop-2-en-1-one] was “++ (++ indicates binding activity from 50 to 90%)”; that for `C=CC(=O)N1C[C@H](C)N(c2nc(OC3CCN(C)CC3)nc3c(F)c(-c4cc(O)cc5ccccc45)c(Cl)cc23)C[C@H]1C` [Compound 245, 1-((2R,5S)-4-(6-chloro-8-fluoro-7-(3-hvdroxynaphthalen-1-yl)-2-((1-methylpiperidin-4-yl)oxy)quinazolin-4-yl)-2,5-dimethylpiperazin-1-yl)prop-2-en-1-one] was “+++ (+++ indicates binding activity greater than 90%)”.
Turning to `C=CC(=O)N1C[C@H](C)N(c2nc(N3CC(N(C)C)C3)nc3c(F)c(-c4c(C)ccc5[nH]nc(C#N)c45)c(Cl)cc23)C[C@H]1C` [Compound 292, 4-(4-((2S,5R)-4-acryloyl-2,5-dimethylpiperazin-1-yl)-6-chloro-2-(3-(dimethylamino)azetidin-1-yl)-8-fluoroquinazolin-7-yl)-5-methyl-1H-indazole-3-carbonitrile], the Binding % result was “++ (++ indicates binding activity from 50 to 90%)”.
Still for that read-out and setting: then `C=CC(=O)N1C[C@H](C)N(c2nc(N3CC(N(C)C)C3)nc3c(F)c(-c4c(C)[nH]c5ccccc45)c(Cl)cc23)C[C@H]1C` [Compound 287, 1-((2R,5S)-4-(6-chloro-2-(3-(dimethylamino)azetidin-1-yl)-8-fluoro-7-(2-methyl-1H-indol-3-yl)quinazolin-4-yl)-2,5-dimethylpiperazin-1-yl)prop-2-en-1-one], with “+ (+ indicates binding activity greater than 0% and up to 50%)”.
As to `C=CC(=O)N1C[C@H](C)N(c2nc(OCC(C)(C)O)nc3c(F)c(-c4c(O)cccc4F)c(Cl)cc23)C[C@H]1C` [Compound 281, 1-((2R,5S)-4-(6-chloro-8-fluoro-7-(2-fluoro-6-hydroxyphenyl)-2-(2-hydroxy-2-methylpropoxy)quinazolin-4-yl)-2,5-dimethylpiperazin-1-yl)prop-2-en-1-one], the Binding % entry is recorded as “++ (++ indicates binding activity from 50 to 90%)”.
